Measurements taken from US20100292306A1, “Compositions And Methods For The Treatment Of Muscular Dystrophy” (priority 2005, published 2010).
Entries after “also recorded” stand apart in the source; their conditions may differ.

Assays:
[1] = test system: mdx TS muscle fibers; assay: Intracellular recording of resting membrane potential in TS muscle fibers after chronic treatment; format: in vivo, mdx mice
[2] = test system: cytosolic IκB-α; assay: Western blot of cytosolic IκB-α in mdx diaphragm after a single PDTC dose; format: in vivo, mdx mice
Method: Cytosolic levels of IκB-α may be determined using Western blot techniques. Cytosolic and nuclear fractions may be obtained from isolated diaphragm muscles using the techniques described in Kumar and Boriek, 2003. Briefly, the muscles may be weighed after removing tendinous components, and frozen and homogenized by mortar and pestle in lysis buffer on ice (1 mg muscle/18 μl lysis buffer containing 10 mM HEPES, 10 mM KCl, 1.5 mM MgCl2, 0.1 mM EDTA, 0.1 mM EGTA, 1 mM dithiothreitol, 0.5 mM phenylmethylsulfonylfluoride, 2.0 μg/ml leupeptin, 2.0 μg/ml aprotinin, 0.5 mg/ml benzamidine, at pH 7.9). To lyse the cells, the ground tissue may be subjected to two freeze-thaw cycles and subsequently vortexed and centrifuged (13,000 rpm, 10 s). […]
Equal amounts of proteins (based on Lowry Assay) from treated vs. untreated cytosolic fractions may be boiled in SDS-PAGE sample buffer for 5 min, applied to 10% SDS-PAGE gel, and blotted onto PVDF (polyvinyl difluoride) membrane. […] After additional washing steps, the antibody complex may be detected by chemiluminescence using the ECL detection reagent (Amersham) and densitometric measurements may also be obtained. […]

[3] = test system: mdx triangularis sterni (TS) muscle; assay: Histological cross sections of mdx TS muscle (fiber number, diameter, density, myonuclei, centronucleation); format: in vivo, mdx mice
Text: To further examine the morphological effects of chronic treatment with inhibitors of the NFκB pathway, the fixed TS preparations used in these investigations on mature mdx mice (Series 2 through 4) were sectioned and stained with hematoxylin and eosin using standard histological procedures (FIG. 7A, 7B, 7C). […] PDTC treatment produced a significant (p<0.001) reduction in diameter in the caudal region and a significant (p<0.001) increase in diameter in the middle region in comparison to corresponding values from the vehicle-injected mdx mice (FIG. 9).
To determine the density of muscle fibers in the mdx TS muscle, individual sections representing all of the fibers within each TS muscle were evaluated by determining the average number of fiber cross sections per unit length of the TS muscle where the length is defined along the axis orthogonal to the principal fiber axis. This procedure was performed for all of the available TS muscles initially used in the Series 2 and 3 PDTC investigations.
Determination of the total number of myonuclei across all regions of the mature nondystrophic, mdx-vehicle, and mdx-PDTC treated TS muscles in conjunction with determination of the total number of fiber cross sections in the same preparations provided an immediate measure of the number of myonuclei per sectioned fiber (FIG. 12).
These morphological results provide direct evidence that inhibitors of the NFκB pathway may have beneficial effects in treating both young and mature dystrophic preparations.

[4] = test system: mdx gastrocnemius muscle; assay: Gastrocnemius twitch tension at optimal length
[5] = Series 3 aged mdx mice, P<0.001 vs saline littermates
[6] = Series 2 and 3, vs age-matched vehicle
[7] = mature mdx, vs vehicle-injected, p<0.001

Compound: S=C(S)N1CCCC1 [PDTC, pyrrolidine dithiocarbamate]
- resting potential of TS fibers ([1]; 50 mg/kg ip 48-76 days, mature mdx mice Series 2 and Series 3): significantly increases
- resting potential ([1]; Series 1 daily PDTC, middle and caudal regions, relative to nondystrophic levels): completely restored; also recorded: restores
- increase in resting potential, caudal region ([1]; Series 2 daily PDTC): not
- resting potential, middle region ([1]; Series 2 daily PDTC, saline −35.8 mV, P<0.05): −45.4 mV
- average resting potential, middle region ([1]; Series 3 aged mdx mice, N=9 fibers, 2 mice): −32.2±6.5 mV
- resting potential, caudal region [1, 5]: approximately −45 mV
- resting potential, overall (middle, caudal, cephalad combined) [1, 5]: ~−40 mV
- overall resting potential ([1]; Series 4: administration initiated at 5 months, read at 6.5-13.5 months, N=64 fibers, 3 TS muscles): -49.3 ± 1.4 mV
- average resting potential ([1]; Series 4: mdx mouse treated between 5 and 13.5 months, N=22 fibers): −53.3±2.0 mV
- period of increased cytosolic IκB-α levels ([2]; single dose 50 mg/kg ip, adult mdx skeletal muscle): at least 5 h
- ambient levels of cytosolic IκB-α ([2]; single ip dose 50 mg/kg, diaphragm 3 and 5 h after injection, vs vehicle littermates, 50 mg/kg): substantially increased; also recorded: increases
- fiber number, caudal region [3, 6]: substantial increases
- fiber number, cephalad region [3, 6]: an increase
- fiber number, middle region [3, 6]: no change
- number of fibers per unit length ([3]; Series 2 and 3, cephalad and caudal regions, p<0.05): increased
- number of myonuclei per fiber ([3]; Series 2 and 3 mature mdx, vs age matched vehicle, p<0.001): increase
- fiber number or density, middle region ([3]; chronic PDTC, mature mdx): without altering
- density of fibers / loss of muscle fibers ([3]; individual mdx mouse, 50 mg/kg on 238 of 258 days from 5 to 13.5 months, vs 14.6 month vehicle treated, 50 mg/kg): substantial improvements; also recorded: decreases the loss
- percent centronucleation ([3]; mature mdx mice, Series 2 and 3, p<0.001): reduced; also recorded: significantly decreased
- fiber diameter, caudal region [3, 7]: reduction
- fiber diameter, middle region [3, 7]: increase
- improvement in average twitch tension relative to vehicle-injected ([4]; mature mdx (about 15 months), 50 mg/kg daily, average 72 days): 52%
- twitch tension development ([4]; mature mdx mice, average age 15 months at sacrifice): improves
- improvement in twitch tension/gm relative to vehicle-injected ([4]; mature mdx, just failed to reach statistical significance (p>=0.05)): 45%
- increase in twitch tension vs vehicle-treated ([4]; young adult (2 month old) mdx): 13%
- increase in twitch tension/mg muscle weight vs vehicle-treated ([4]; young adult (2 month old) mdx): 11%
- twitch tension development ([4]; young adult mdx mice): improves
